The results in this text go back to patent US20100179095A1, “USE OF FOLATES FOR PRODUCING A PREPARATION SUITABLE FOR PREVENTING AND TREATING INFLAMMATION AND DISEASES ASSOCIATED WITH INFLAMMATION, ESPECIALLY FOR INFLUENCING THE INFLAMMATION MARKERS CRP AND SAA” (priority 2002, published 2010).

Assay [1] deals with homocysteine (total) (Hcys). The assay can be described thus: Clinical study in haemodialysis patients: plasma homocysteine (total). The assay is classed as in vivo, human. On the procedure: For the patients for whom all the measured values could be ascertained completely at any time, a “matched pair” analysis was performed in addition. For the individual patient, the values before therapy were compared, pair-wise, with those after 3 and 6 weeks of therapy.

Assay [2] concerns C-reactive protein (CRP). Put plainly: Clinical study in haemodialysis patients: plasma CRP (immuno-nephelometry, N High Sensitivity CRP). The assay is classed as in vivo, human. As to conditions: for CRP Median / CRP MW (mean): plasma, haemodialysis patients. From the text:
(§1) For the individual patient, the values before therapy were compared, pair-wise, with those after 3 and 6 weeks of therapy.

Assay [3] relates to serum amyloid A protein (SAA). The assay can be described thus: Clinical study in haemodialysis patients: plasma SAA (immuno-nephelometry, N Latex SAA). As to conditions: for SAA MW (mean) / SAA Median: plasma, haemodialysis patients. Format: in vivo, human.
Excerpt: as §1

The subject of assay [4] is inflammation markers CRP and SAA. As to conditions: haemodialysis patients, 6 weeks of folate therapy.
Excerpt: Clinical data were obtained via the prospective, randomised double blind study described below.
141 patients with terminal renal insufficiency, who were being treated with chronic haemodialysis on 3 days each week, and who were between 24 and 90 years old, were divided randomly into 4 therapy groups according to the sex of the patient and the presence or absence of a C677T point mutation on the gene for methylene tetrahydrofolate reductase. Randomisation based on the methylene tetrahydrofolate reductase mutation was effected in order to prevent an imbalance occurring within the individual therapy groups with regard to enzyme activity and thus with regard to folic acid metabolism also. […]
The first blood sample in the study was taken before the commencement of the administration of additional vitamins. […] The following measured quantities were each determined from plasma samples from the 3 blood samples taken: • homocysteine (total) (Hcys) • total folate (Fol) • vitamin B12 (B12) • vitamin B6 (B6) • neopterin (NEOP) • creatinine (Krea) • LDL- and HDL-cholesterol (HDL-Choi, LDL-Chol) • triglyceride (TG) • C-reactive protein (CRP) • amyloid A protein (SAA) […]
CRP and SAA were both measured by means of immuno-nephelometry and tests supplied by DadeBehring (N High Sensitivity CRP and N Latex SAA assays).
Where [5] appears, read: 3 w vs 6 w, value after 3 weeks vs value after 6 weeks.
The mark [6] stands for this setting: BL vs 3 w, initial value vs value after 3 weeks.
Where [7] appears, read: BL vs 6 w, initial value vs value after 6 weeks.
Setting [8] is: BL baseline before folate therapy.
[9] abbreviates: BL baseline before folate therapy, basic vitamin preparation in all.
[10] abbreviates: after 3 weeks (3 w) of therapy, 15 mg FTHF or MTHF, 7.5 mg PGA per day plus basic vitamin preparation.
Setting [11] is: after 6 weeks (6 w) of therapy, 15 mg FTHF or MTHF, 7.5 mg PGA per day plus basic vitamin preparation.

Where two headings read alike, the source gives them in different places.

For `Nc1nc2c(c(=O)[nH]1)N(C=O)[C@H](CNc1ccc(C(=O)N[C@@H](CCC(=O)O)C(=O)O)cc1)CN2` (mixture of isomers) [FTHF, 5-formyl-(6R,S)-tetrahydrofolic acid], the “Hcys matched pair analysis, significance of difference” value in assay [1] (setting [5]) was “Ø”; in assay [1] (setting [6]), “* (p < 0.05)”; in assay [1] (setting [7]), “** (p < 0.01)”. The “CRP matched pair analysis, significance of difference” value was “Ø” in assay [2] (setting [5]), “* (p < 0.05)” in assay [2] (setting [6]) and “Ø” in assay [2] (setting [7]). Besides, the “CRP Median” value amounted to 9 mg/L in assay [2] (setting [8]), 5 mg/L in assay [2] (after 3 weeks (3 w) of therapy) and 6 mg/L in assay [2] (after 6 weeks (6 w) of therapy). The “CRP MW (mean)” value was found to be 16 mg/L in assay [2] (setting [9]), 9 mg/L in assay [2] (setting [10]) and 18 mg/L in assay [2] (setting [11]). For the same compound, the results for the “SAA matched pair analysis, significance of difference” value in assay [3] (setting [5]), in assay [3] (setting [6]) and in assay [3] (setting [7]) were “* (p < 0.05)”, “* (p < 0.05)” and “Ø”, respectively. The results for the “SAA MW (mean)” value in assay [3] (setting [8]), in assay [3] (after 3 weeks (3 w) of therapy) and in assay [3] (after 6 weeks (6 w) of therapy) were 28 mg/L, 8 mg/L and 35 mg/L, respectively. The “SAA Median” value in assay [3] (setting [8]) was determined as 6 mg/L; in assay [3] (after 3 weeks (3 w) of therapy), 4 mg/L; in assay [3] (after 6 weeks (6 w) of therapy), 6 mg/L.
Regarding `CN1c2c(nc(N)[nH]c2=O)NC[C@H]1CNc1ccc(C(=O)N[C@@H](CCC(=O)O)C(=O)O)cc1` (mixture of isomers) [MTHF, 5-methyl-(6R,S)-tetrahydrofolic acid], the “Hcys matched pair analysis, significance of difference” value in assay [1] (setting [5]) was “Ø”; in assay [1] (setting [6]) it was “Ø”; in assay [1] (setting [7]), “* (p < 0.05)”. For the same compound, the “CRP matched pair analysis, significance of difference” value was “* (p < 0.05)” in assay [2] (setting [5]), “* (p < 0.05)” in assay [2] (setting [6]) and “** (p < 0.01)” in assay [2] (setting [7]). For the same compound, the figures for the “CRP Median” value in assay [2] (setting [8]), in assay [2] (after 3 weeks (3 w) of therapy) and in assay [2] (after 6 weeks (6 w) of therapy) were 11 mg/L, 8 mg/L and 7 mg/L, respectively. Moreover, the results for the “CRP MW (mean)” value in assay [2] (setting [9]), in assay [2] (setting [10]) and in assay [2] (setting [11]) were 19 mg/L, 11 mg/L and 9 mg/L, respectively. The “effect on inflammation markers CRP and SAA (acute phase response), in words” value is “reduce the acute phase response” in assay [4] and “most pronounced decrease in inflammation markers” in assay [4] (listed as 5-methyl-(6R,S)-tetahydrofolic acid). For the same compound, the “SAA matched pair analysis, significance of difference” value in assay [3] (setting [5]), in assay [3] (setting [6]) and in assay [3] (setting [7]) was “Ø” throughout. For the same compound, the “SAA MW (mean)” value in assay [3] (setting [8]) was found to be 34 mg/L; in assay [3] (after 3 weeks (3 w) of therapy) it was 19 mg/L; in assay [3] (after 6 weeks (6 w) of therapy), 13 mg/L. Besides, the “SAA Median” value was found to be 11 mg/L in assay [3] (setting [8]), 10 mg/L in assay [3] (after 3 weeks (3 w) of therapy) and 9 mg/L in assay [3] (after 6 weeks (6 w) of therapy).
Consider `Nc1nc2ncc(CNc3ccc(C(=O)N[C@@H](CCC(=O)O)C(=O)O)cc3)nc2c(=O)[nH]1` [PGA, folic acid], for which the “Hcys matched pair analysis, significance of difference” value is reported as “Ø” in assay [1] (setting [5]), “* (p < 0.05)” in assay [1] (setting [6]) and “* (p < 0.05)” in assay [1] (setting [7]). The “CRP matched pair analysis, significance of difference” value in assay [2] (setting [5]), in assay [2] (setting [6]) and in assay [2] (setting [7]) was “Ø” throughout. The “CRP Median” value in assay [2] (setting [8]) turned out to be 7 mg/L; in assay [2] (after 3 weeks (3 w) of therapy), 8 mg/L; in assay [2] (after 6 weeks (6 w) of therapy) it was 6 mg/L. Also, the “CRP MW (mean)” value is 10 mg/L in assay [2] (setting [9]), 10 mg/L in assay [2] (setting [10]) and 9 mg/L in assay [2] (setting [11]). The figures for the “SAA matched pair analysis, significance of difference” value in assay [3] (setting [5]), in assay [3] (setting [6]) and in assay [3] (setting [7]) were “* (p < 0.05)”, “Ø” and “Ø”, respectively. Further, the “SAA MW (mean)” value in assay [3] (setting [8]) came to 11 mg/L; in assay [3] (after 3 weeks (3 w) of therapy), 12 mg/L; in assay [3] (after 6 weeks (6 w) of therapy), 13 mg/L. For the same compound, the “SAA Median” value stood at 7 mg/L in assay [3] (setting [8]), 6 mg/L in assay [3] (after 3 weeks (3 w) of therapy) and 10 mg/L in assay [3] (after 6 weeks (6 w) of therapy).
